Experimental data: patent publication US20040171658A1, “Carbohydrate derivatives” (priority 2001, published 2004)
Counter-ions that a name gives are not always drawn.

Assays:
FXa = FXa (Homo sapiens, UniProt P00742); test: Factor Xa inhibition (FXa-IC50); format: biochemical
From the text: The inhibition of factor Xa by the compounds according to the invention and the measurement of the anticoagulant and antithrombotic activity can be determined by conventional in-vitro or in-vivo methods. A suitable method is described, for example, by J. Hauptmann et al. in Thrombosis and Haemostasis 1990, 63, 220-223.
The inhibition of factor Xa can be measured, for example, by the method of T. Hara et al. in Thromb. Haemostas. 1994, 71, 314-319.

TF/FVIIa = TF/FVIIa (Homo sapiens, UniProt P08709); test: TF/factor VIIa inhibition (TF/FVIIa-IC50); format: biochemical
Sequence of TF/FVIIa (P08709 213-466 limits assumed): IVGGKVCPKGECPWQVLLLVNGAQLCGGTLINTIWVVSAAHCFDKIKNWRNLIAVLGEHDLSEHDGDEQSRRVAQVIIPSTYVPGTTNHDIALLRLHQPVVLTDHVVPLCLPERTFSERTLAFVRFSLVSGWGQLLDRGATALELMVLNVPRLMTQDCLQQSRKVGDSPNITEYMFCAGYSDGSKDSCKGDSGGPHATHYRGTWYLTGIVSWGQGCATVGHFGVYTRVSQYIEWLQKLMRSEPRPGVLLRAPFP
Sequence of TF/FVIIa (P08709 61-212 partner limits assumed): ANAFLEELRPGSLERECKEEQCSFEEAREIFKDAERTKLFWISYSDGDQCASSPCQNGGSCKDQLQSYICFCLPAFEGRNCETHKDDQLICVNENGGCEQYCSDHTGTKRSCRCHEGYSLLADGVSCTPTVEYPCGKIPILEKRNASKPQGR
Sequence of TF/FVIIa (P13726 33-295 partner): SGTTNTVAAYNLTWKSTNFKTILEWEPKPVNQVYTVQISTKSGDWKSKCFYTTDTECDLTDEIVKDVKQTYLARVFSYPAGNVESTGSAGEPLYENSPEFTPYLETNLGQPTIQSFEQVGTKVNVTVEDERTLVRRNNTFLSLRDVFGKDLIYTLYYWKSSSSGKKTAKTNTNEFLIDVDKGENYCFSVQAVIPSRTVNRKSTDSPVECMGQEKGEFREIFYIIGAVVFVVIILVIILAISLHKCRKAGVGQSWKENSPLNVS
From the text: The inhibition of factor VIIa by the compounds according to the invention and the measurement of the anticoagulant and antithrombotic activity can be determined by conventional in-vitro or in-vivo methods. A conventional method for the measurement of the inhibition of factor VIIa is described, for example, by H. F. Ronning et al. in Thrombosis Research 1996, 84, 73-81.

Sequence of FXa (P00742 235-488 limits assumed): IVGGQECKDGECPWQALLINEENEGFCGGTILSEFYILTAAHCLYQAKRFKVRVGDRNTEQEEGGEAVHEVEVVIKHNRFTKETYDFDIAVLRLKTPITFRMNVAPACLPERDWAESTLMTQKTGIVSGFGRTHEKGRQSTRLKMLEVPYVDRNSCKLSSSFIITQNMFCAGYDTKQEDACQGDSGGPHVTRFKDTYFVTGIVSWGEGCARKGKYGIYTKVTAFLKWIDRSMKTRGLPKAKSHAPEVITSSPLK
Sequence of FXa (P00742 41-179 partner limits assumed): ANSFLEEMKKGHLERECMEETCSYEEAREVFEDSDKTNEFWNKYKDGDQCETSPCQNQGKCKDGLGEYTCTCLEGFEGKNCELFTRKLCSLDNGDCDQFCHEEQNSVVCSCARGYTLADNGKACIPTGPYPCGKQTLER

Row | SMILES | melting point | IC50 (FXa) [µM] | IC50 (TF/FVIIa) [µM]
1 | N=C(N)c1cccc(CO[C@H]2CO[C@H]3[C@@H]2OC[C@H]3Oc2cccc(C(=N)N)c2)c1 (as salt: trifluoroacetate) [Compound A1, 2-O-(3′-Amidinobenzyl)-5-O-(3″-amidinophenyl)-1,4:3,6-dianhydro-D-sorbitol] | 155 °C |  | 
2 | N=C(N)c1ccc(O[C@@H]2CO[C@H]3[C@@H]2OC[C@@H]3Oc2cccc(C(=N)N)c2)cc1 (as salt: trifluoroacetate) [Compound B1, 2-O-(3′-Amidinophenyl)-5-O-(4″-amidinophenyl)-1,4:3,6-dianhydro-D-sorbitol] | 225 °C (dec.) |  | 
3 | N=C(N)c1cccc(CO[C@H]2CO[C@H]3[C@@H]2OC[C@H]3Oc2cccc(C(=N)N)c2)c1 [Compound A1, 2-O-(3′-Amidinobenzyl)-5-O-(3″-amidinophenyl)-1,4:3,6-dianhydro-D-sorbitol] |  | 7.9 | 
4 | N=C(N)c1ccc(O[C@@H]2CO[C@H]3[C@@H]2OC[C@@H]3OCc2cccc(C(=N)N)c2)cc1 [Compound A2, 2-O-(3′-amidinobenzyl)-5-O-(4″-amidinophenyl)-1,4:3,6-dianhydro-D-sorbitol] |  | 2.1 | 3.9
5 | N=C(N)c1ccc(O[C@@H]2CO[C@H]3[C@@H]2OC[C@@H]3Oc2cccc(C(=N)N)c2)cc1 [Compound B1, 2-O-(3′-Amidinophenyl)-5-O-(4″-amidinophenyl)-1,4:3,6-dianhydro-D-sorbitol] |  | 0.15 | 0.1
6 | N=C(N)c1cccc(O[C@H]2CO[C@H]3[C@@H]2OC[C@H]3Oc2cccc(C(=N)N)c2)c1 [Compound B2, 2-O-(3′-amidinophenyl)-5-O-(3″-amidinophenyl)-1,4:3,6-dianhydro-D-sorbitol] |  | 3 | 6
